The source of these data is US20240116985A1, “STAPLED PEPTIDES AND METHODS THEREOF” (priority 2020, published 2024).

This assay deals with T1, full-length beta-Catenin (Uniprot ID P35222) (Homo sapiens, UniProt P35222).
T1 construct: 10 nM full-length beta-Catenin (Uniprot ID P35222)
T1 sequence (P35222 1-781): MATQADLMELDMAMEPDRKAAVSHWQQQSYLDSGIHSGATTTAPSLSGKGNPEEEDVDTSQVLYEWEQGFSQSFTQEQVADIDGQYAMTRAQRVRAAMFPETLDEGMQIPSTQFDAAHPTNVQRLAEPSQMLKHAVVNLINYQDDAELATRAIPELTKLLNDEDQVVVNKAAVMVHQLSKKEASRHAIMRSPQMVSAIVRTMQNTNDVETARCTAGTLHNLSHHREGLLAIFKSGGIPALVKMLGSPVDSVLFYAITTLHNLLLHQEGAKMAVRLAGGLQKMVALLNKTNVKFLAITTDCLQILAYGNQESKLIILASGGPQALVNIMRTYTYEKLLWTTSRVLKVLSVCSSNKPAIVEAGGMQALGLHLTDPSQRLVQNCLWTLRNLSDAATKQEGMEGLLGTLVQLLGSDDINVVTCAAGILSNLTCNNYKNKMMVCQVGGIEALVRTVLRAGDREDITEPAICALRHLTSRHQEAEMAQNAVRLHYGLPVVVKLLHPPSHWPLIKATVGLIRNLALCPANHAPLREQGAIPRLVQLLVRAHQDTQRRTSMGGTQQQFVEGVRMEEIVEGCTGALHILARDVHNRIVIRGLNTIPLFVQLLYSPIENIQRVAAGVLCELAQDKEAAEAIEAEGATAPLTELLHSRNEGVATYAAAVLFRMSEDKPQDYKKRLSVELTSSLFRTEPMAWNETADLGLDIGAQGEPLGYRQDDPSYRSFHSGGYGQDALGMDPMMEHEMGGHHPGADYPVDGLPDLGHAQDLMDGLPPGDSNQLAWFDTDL
The assay is described as follows: Fluorescence polarization IC50 (beta-catenin / 5FAM-TCF4 10-53 competition). The class given is binding. The following applies: fluorescence polarization; read-out: beta-Catenin FP IC50. Background: Polarisation of emitted light reports the rotation of a fluorescent probe.

Broadly, the IC50 is the concentration at which inhibition is half-maximal. As for `CC(=O)N1CCC[C@]12CC=CCCCC1(CCCC=CCCCOC(=O)N3CC[C@@](C(=O)N[C@@H](Cc4ccccc4Cl)C(=O)N[C@@H](Cc4csc5ccccc45)C(=O)N[C@@H](CCC(N)=O)C(N)=O)(C3)NC(=O)[C@H](CC(N)=O)NC(=O)[C@H](Cc3ccccc3)NC(=O)[C@H](C)NC(=O)[C@H](C)NC(=O)[C@H]([C@@H](C)O)NC(=O)[C@H](CC(N)=O)NC1=O)NC(=O)[C@H](CC(C)(C)C)NC(=O)[C@H](CC(=O)O)NC2=O` (stereo partly drawn) [I-1998, Ac-PL3-Asp-Npg-B5-Asn-Thr-Ala-Ala-Phe-Asn-PyrS2-2C1F-BztA-Gln-NH2], the 50% inhibitory concentration (IC50) amounted to 732 nM.

For the compound `CC(=O)N1CCC[C@]12CC=CCCCC1(CCCC=CCCCOC(=O)N3CC[C@@](C(=O)N[C@@H](Cc4ccccc4Cl)C(=O)N[C@@H](Cc4csc5ccccc45)C(=O)N[C@@H](CCC(N)=O)C(N)=O)(C3)NC(=O)[C@H](CC(N)=O)NC(=O)[C@H](Cc3ccccc3)NC(=O)[C@H](C)NC(=O)[C@H](C)NC(=O)[C@H]([C@@H](C)O)NC(=O)[C@H](CC(N)=O)NC1=O)NC(=O)[C@H](CC(C)(C)C)NC(=O)[C@H](CC(=O)O)NC2=O` (stereo partly drawn) [I-1999, Ac-PL3-Asp-Npg-B5-Asn-Thr-Ala-Ala-Phe-Asn-PyrS2-2C1F-BztA-Gln-NH2], the IC50 turned out to be 4940 nM.

As for `CC(=O)N1CCC[C@]12CC=CCCCC1(CCCC=CCCCOC(=O)N3CC[C@@](C(=O)N[C@@H](Cc4cccc(Cl)c4)C(=O)N[C@@H](Cc4csc5ccccc45)C(=O)N[C@@H](CCC(N)=O)C(N)=O)(C3)NC(=O)[C@H](CC(N)=O)NC(=O)[C@H](Cc3ccccc3)NC(=O)[C@H](C)NC(=O)[C@H](C)NC(=O)[C@H]([C@@H](C)O)NC(=O)[C@H](CC(N)=O)NC1=O)NC(=O)[C@H](CC(C)(C)C)NC(=O)[C@H](CC(=O)O)NC2=O` (stereo partly drawn) [I-2000, Ac-PL3-Asp-Npg-B5-Asn-Thr-Ala-Ala-Phe-Asn-PyrS2-3C1F-BztA-Gln-NH2], the IC50 turned out to be 6560 nM.

`CC(=O)N1CCC[C@]12CC=CCCCC1(CCCC=CCCCOC(=O)N3CC[C@@](C(=O)N[C@@H](Cc4cccc(Cl)c4)C(=O)N[C@@H](Cc4csc5ccccc45)C(=O)N[C@@H](CCC(N)=O)C(N)=O)(C3)NC(=O)[C@H](CC(N)=O)NC(=O)[C@H](Cc3ccccc3)NC(=O)[C@H](C)NC(=O)[C@H](C)NC(=O)[C@H]([C@@H](C)O)NC(=O)[C@H](CC(N)=O)NC1=O)NC(=O)[C@H](CC(C)(C)C)NC(=O)[C@H](CC(=O)O)NC2=O` (stereo partly drawn) [I-2001, Ac-PL3-Asp-Npg-B5-Asn-Thr-Ala-Ala-Phe-Asn-PyrS2-3C1F-BztA-Gln-NH2]: the IC50 came to 4450 nM.

Turning to `CC(=O)N1CCC[C@]12CC=CCCCC1(CCCC=CCCCOC(=O)N3CC[C@@](C(=O)N[C@@H](Cc4ccsc4)C(=O)N[C@@H](Cc4csc5ccccc45)C(=O)N[C@@H](CCC(N)=O)C(N)=O)(C3)NC(=O)[C@H](CC(N)=O)NC(=O)[C@H](Cc3ccccc3)NC(=O)[C@H](C)NC(=O)[C@H](C)NC(=O)[C@H]([C@@H](C)O)NC(=O)[C@H](CC(N)=O)NC1=O)NC(=O)[C@H](C)NC(=O)[C@H](CC(=O)O)NC2=O` (stereo partly drawn) [I-2002, Ac-PL3-Asp-Ala-B5-Asn-Thr-Ala-Ala-Phe-Asn-PyrS2-3Thi-BztA-Gln-NH2], the 50% inhibitory concentration (IC50) came out at 612 nM.

Regarding `CC(=O)N1CCC[C@]12CC=CCCCC1(CCCC=CCCCOC(=O)N3CC[C@@](C(=O)N[C@@H](Cc4ccsc4)C(=O)N[C@@H](Cc4csc5ccccc45)C(=O)N[C@@H](CCC(N)=O)C(N)=O)(C3)NC(=O)[C@H](CC(N)=O)NC(=O)[C@H](Cc3ccccc3)NC(=O)[C@H](C)NC(=O)[C@H](C)NC(=O)[C@H]([C@@H](C)O)NC(=O)[C@H](CC(N)=O)NC1=O)NC(=O)[C@H](C)NC(=O)[C@H](CC(=O)O)NC2=O` (stereo partly drawn) [I-2003, Ac-PL3-Asp-Ala-B5-Asn-Thr-Ala-Ala-Phe-Asn-PyrS2-3Thi-BztA-Gln-NH2], the IC50 worked out at 1020 nM.

Turning to `CC(=O)N1CCC[C@]12CC=CCCCC1(CCCC=CCCCOC(=O)N3CC[C@@](C(=O)N[C@@H](Cc4ccsc4)C(=O)N[C@@H](Cc4csc5ccccc45)C(=O)N[C@@H](CCC(N)=O)C(N)=O)(C3)NC(=O)[C@H](CC(N)=O)NC(=O)[C@H](Cc3ccccc3)NC(=O)[C@H](C)NC(=O)[C@H](CCCCNC(C)C)NC(=O)[C@H]([C@@H](C)O)NC(=O)[C@H](CC(N)=O)NC1=O)NC(=O)[C@H](CC(C)(C)C)NC(=O)[C@H](CC(=O)O)NC2=O` (stereo partly drawn) [I-2004, Ac-PL3-Asp-Npg-B5-Asn-Thr-iPrLys-Ala-Phe-Asn-PyrS2-3Thi-BztA-Gln-NH2], the IC50 stood at 227 nM.

`CC(=O)N1CCC[C@]12CC=CCCCC1(CCCC=CCCCOC(=O)N3CC[C@@](C(=O)N[C@@H](Cc4ccsc4)C(=O)N[C@@H](Cc4csc5ccccc45)C(=O)N[C@@H](CCC(N)=O)C(N)=O)(C3)NC(=O)[C@H](CC(N)=O)NC(=O)[C@H](Cc3ccccc3)NC(=O)[C@H](C)NC(=O)[C@H](CCCCNC(C)C)NC(=O)[C@H]([C@@H](C)O)NC(=O)[C@H](CC(N)=O)NC1=O)NC(=O)[C@H](CC(C)(C)C)NC(=O)[C@H](CC(=O)O)NC2=O` (stereo partly drawn) [I-2005, Ac-PL3-Asp-Npg-B5-Asn-Thr-iPrLys-Ala-Phe-Asn-PyrS2-3Thi-BztA-Gln-NH2]: the IC50 came to 357 nM.

Take `CC(=O)N1CCC[C@]12CC=CCCCC1(CCCC=CCCCOC(=O)N3CC[C@@](C(=O)N[C@@H](Cc4ccsc4)C(=O)N[C@@H](Cc4csc5ccccc45)C(=O)N[C@@H](CCC(N)=O)C(N)=O)(C3)NC(=O)[C@H](CC(N)=O)NC(=O)[C@H](Cc3ccccc3)NC(=O)[C@H](CCCCNC(C)C)NC(=O)[C@H](C)NC(=O)[C@H]([C@@H](C)O)NC(=O)[C@H](CC(N)=O)NC1=O)NC(=O)[C@H](CC(C)(C)C)NC(=O)[C@H](CC(=O)O)NC2=O` (stereo partly drawn) [I-2006, Ac-PL3-Asp-Npg-B5-Asn-Thr-Ala-iPrLys-Phe-Asn-PyrS2-3Thi-BztA-Gln-NH2]: the IC50 came to 285 nM.

Turning to `CC(=O)N1CCC[C@]12CC=CCCCC1(CCCC=CCCCOC(=O)N3CC[C@@](C(=O)N[C@@H](Cc4ccsc4)C(=O)N[C@@H](Cc4csc5ccccc45)C(=O)N[C@@H](CCC(N)=O)C(N)=O)(C3)NC(=O)[C@H](CC(N)=O)NC(=O)[C@H](CCc3ccccc3)NC(=O)[C@H](C)NC(=O)[C@H](C)NC(=O)[C@H]([C@@H](C)O)NC(=O)[C@H](CC(N)=O)NC1=O)NC(=O)[C@H](CC(C)(C)C)NC(=O)[C@H](CC(=O)O)NC2=O` (stereo partly drawn) [I-2008, Ac-PL3-Asp-Npg-B5-Asn-Thr-Ala-Ala-hPhe-Asn-PyrS2-3Thi-BztA-Gln-NH2], the concentration for half-maximal inhibition (IC50) is 8830 nM.

Consider `CC(=O)N1CCC[C@]12CC=CCCCC1(CCCC=CCCCOC(=O)N3CC[C@@](C(=O)N[C@@H](Cc4ccsc4)C(=O)N[C@@H](Cc4csc5ccccc45)C(=O)N[C@@H](CCC(N)=O)C(N)=O)(C3)NC(=O)[C@H](CC(N)=O)NC(=O)[C@H](Cc3cccc(C(F)(F)F)c3)NC(=O)[C@H](C)NC(=O)[C@H](C)NC(=O)[C@H]([C@@H](C)O)NC(=O)[C@H](CC(N)=O)NC1=O)NC(=O)[C@H](CC(C)(C)C)NC(=O)[C@H](CC(=O)O)NC2=O` (stereo partly drawn) [I-2009, Ac-PL3-Asp-Npg-B5-Asn-Thr-Ala-Ala-3F3MeF-Asn-PyrS2-3Thi-BztA-Gln-NH2], for which the IC50 was found to be 1480 nM.

Regarding `CC(=O)N1CCC[C@]12CC=CCCCC1(CCCC=CCCCOC(=O)N3CC[C@@](C(=O)N[C@@H](Cc4ccsc4)C(=O)N[C@@H](Cc4csc5ccccc45)C(=O)N[C@@H](CCC(N)=O)C(N)=O)(C3)NC(=O)[C@H](CC(N)=O)NC(=O)[C@H](Cc3cccc(C(F)(F)F)c3)NC(=O)[C@H](C)NC(=O)[C@H](C)NC(=O)[C@H]([C@@H](C)O)NC(=O)[C@H](CC(N)=O)NC1=O)NC(=O)[C@H](CC(C)(C)C)NC(=O)[C@H](CC(=O)O)NC2=O` (stereo partly drawn) [I-2010, Ac-PL3-Asp-Npg-B5-Asn-Thr-Ala-Ala-3F3MeF-Asn-PyrS2-3Thi-BztA-Gln-NH2], the IC50 worked out at 1970 nM.

Turning to `CC(=O)N1CCC[C@]12CC=CCCCC1(CCCC=CCCCOC(=O)N3CC[C@@](C(=O)N[C@@H](Cc4ccsc4)C(=O)N[C@@H](Cc4csc5ccccc45)C(=O)N[C@@H](CCC(N)=O)C(N)=O)(C3)NC(=O)[C@H](CC(N)=O)NC(=O)[C@H](Cc3cccc(Cl)c3)NC(=O)[C@H](C)NC(=O)[C@H](C)NC(=O)[C@H]([C@@H](C)O)NC(=O)[C@H](CC(N)=O)NC1=O)NC(=O)[C@H](CC(C)(C)C)NC(=O)[C@H](CC(=O)O)NC2=O` (stereo partly drawn) [I-2013, Ac-PL3-Asp-Npg-B5-Asn-Thr-Ala-Ala-3C1F-Asn-PyrS2-3Thi-BztA-Gln-NH2], the half-maximal inhibitory concentration (IC50) is 661 nM.

Take `CC(=O)N1CCC[C@]12CC=CCCCC1(CCCC=CCCCOC(=O)N3CC[C@@](C(=O)N[C@@H](Cc4ccsc4)C(=O)N[C@@H](Cc4csc5ccccc45)C(=O)N[C@@H](CCC(N)=O)C(N)=O)(C3)NC(=O)[C@H](CC(N)=O)NC(=O)[C@H](Cc3cccc(Cl)c3)NC(=O)[C@H](C)NC(=O)[C@H](C)NC(=O)[C@H]([C@@H](C)O)NC(=O)[C@H](CC(N)=O)NC1=O)NC(=O)[C@H](CC(C)(C)C)NC(=O)[C@H](CC(=O)O)NC2=O` (stereo partly drawn) [I-2014, Ac-PL3-Asp-Npg-B5-Asn-Thr-Ala-Ala-3C1F-Asn-PyrS2-3Thi-BztA-Gln-NH2]: the IC50 is 1180 nM.
